The record followed here is US11554120B2, “1H-pyrazolo[4,3-d]pyrimidine compounds as toll-like receptor 7 (TLR7) agonists and methods and uses therefor” (BRISTOL-MYERS SQUIBB COMPANY, priority 2018, dated 2023).

In the test the target is T1, human TLR7 (Homo sapiens, UniProt Q9NYK1).
T1 construct: host or cells: HEK-Blue TLR7 cells (engineered human embryonic kidney cells)
T1 sequence (Q9NYK1 27-1049): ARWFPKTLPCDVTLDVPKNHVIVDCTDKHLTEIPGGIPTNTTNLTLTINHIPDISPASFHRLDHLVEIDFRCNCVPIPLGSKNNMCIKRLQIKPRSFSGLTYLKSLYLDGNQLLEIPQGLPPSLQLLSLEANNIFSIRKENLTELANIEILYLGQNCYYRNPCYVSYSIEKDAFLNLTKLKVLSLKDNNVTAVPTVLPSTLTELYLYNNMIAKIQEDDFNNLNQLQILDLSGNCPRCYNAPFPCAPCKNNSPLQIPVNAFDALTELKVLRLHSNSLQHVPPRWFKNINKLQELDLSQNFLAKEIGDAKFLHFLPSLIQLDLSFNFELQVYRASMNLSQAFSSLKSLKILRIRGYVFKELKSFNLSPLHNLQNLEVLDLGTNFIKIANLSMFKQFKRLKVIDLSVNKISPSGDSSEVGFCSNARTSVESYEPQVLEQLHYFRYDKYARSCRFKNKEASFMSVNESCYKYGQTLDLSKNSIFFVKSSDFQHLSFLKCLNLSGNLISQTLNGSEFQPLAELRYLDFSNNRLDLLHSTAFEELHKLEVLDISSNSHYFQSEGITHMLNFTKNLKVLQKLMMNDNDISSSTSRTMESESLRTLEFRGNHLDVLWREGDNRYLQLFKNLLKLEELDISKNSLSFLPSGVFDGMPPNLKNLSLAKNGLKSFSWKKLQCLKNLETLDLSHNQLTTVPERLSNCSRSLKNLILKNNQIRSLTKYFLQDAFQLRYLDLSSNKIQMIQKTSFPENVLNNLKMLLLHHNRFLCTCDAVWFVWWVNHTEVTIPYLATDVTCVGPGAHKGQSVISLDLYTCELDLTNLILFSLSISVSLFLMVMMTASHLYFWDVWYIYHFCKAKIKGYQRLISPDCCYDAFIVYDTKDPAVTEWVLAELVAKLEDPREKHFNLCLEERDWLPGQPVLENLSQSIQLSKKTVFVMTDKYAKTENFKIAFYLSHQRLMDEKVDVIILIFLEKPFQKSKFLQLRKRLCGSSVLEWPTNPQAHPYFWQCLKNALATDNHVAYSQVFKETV
Kind of test: Human TLR7 agonist activity assay (HEK-Blue TLR7 SEAP reporter). In kind it is cell-based. The conditions noted are these: HEK-Blue TLR7 cells, 18 h treatment, in some instances average of plural assays, read-out: hTLR7 EC50.

Method: Human TLR7 Agonist Activity Assay
HEK-Blue™ TLR7 cells were added to each well of a 384-well tissue-culture plate (15,000 cells per well) and incubated 16-18 h at 37° C., 5% CO2. Compounds (100 nl) were dispensed into wells containing the HEK-Blue™ TLR cells and the treated cells were incubated at 37° C., 5% CO2. After 18 h treatment ten microliters of freshly-prepared Quanti-Blue™ reagent (Invivogen) was added to each well, incubated for 30 min (37° C., 5% CO2) and SEAP levels measured using an Envision plate reader (OD=620 nm).

`CCCCNc1nc(N)nc2cnn(Cc3ccc(CNC4CCC4)cc3OC)c12` [Compound 800]: the half-maximal effective concentration (EC50) was 58.3 nM.

On to `CCCCNc1nc(N)nc2cnn(Cc3ccc(Oc4ccc(CNCCO)cc4)cc3OC)c12` [Compound 802], for which the EC50 amounted to 43.8 nM.

With `CCCCNc1nc(N)nc2cnn(Cc3ccc(Oc4ccc(CO)cc4)cc3OC)c12` [Compound 803], the half-maximal effective concentration (EC50) stood at 569 nM.

As for `CCCCNc1nc(N)nc2cnn(Cc3ccc(CNCC(C)(C)O)cc3OC)c12` [Compound 805], the half-maximal effective concentration (EC50) was found to be 41.4 nM.

On to `CCCCNc1nc(N)nc2cnn(Cc3ccc(CNC4CCC(O)CC4)cc3OC)c12` (stereo not drawn) [Compound 806], for which the EC50 came to 41.4 nM.

Consider `CCCCNc1nc(N)nc2cnn(Cc3ccc(CNCC4CC(O)C4)cc3OC)c12` (stereo not drawn) [Compound 807], for which the EC50 stood at 2550 nM.

Take `CCCCNc1nc(N)nc2cnn(Cc3ccc(Oc4ccc(CNCCOC)cc4)cc3OC)c12` [Compound 808]: the EC50 came out at 157 nM.

For `CCCCNc1nc(N)nc2cnn(Cc3ccc(Oc4ccc(CN5CCN(C)CC5)cc4)cc3OC)c12` [Compound 809], the EC50 was 74.5 nM.

For the compound `CCCCNc1nc(N)nc2cnn(Cc3ccc(Oc4ccc(CN5CCN(CCO)CC5)cc4)cc3OC)c12` [Compound 810], the concentration for a half-maximal effect (EC50) came to 245 nM.

For `CCCCNc1nc(N)nc2cnn(Cc3ccc(CNC4CC(O)C4)cc3OC)c12` (stereo not drawn) [Compound 811], the EC50 came to 138 nM.

For `CCCCNc1nc(N)nc2cnn(Cc3ccc(CN4CC5CNCC5C4)cc3OC)c12` (stereo not drawn) [Compound 812], the concentration for a half-maximal effect (EC50) amounted to 102 nM.

For the compound `CCCCNc1nc(N)nc2cnn(Cc3ccc(CN4CC(CCO)C4)cc3OC)c12` [Compound 815], the EC50 is 33.2 nM.

Take `CCCCNc1nc(N)nc2cnn(Cc3ccc(CNCCO)cc3OC)c12` [Compound 816]: the concentration giving a half-maximal response (EC50) came to 92.5 nM.

Regarding `CCC[C@@H](CCO)Nc1nc(N)nc2cnn(Cc3ccc(CO)cc3OC)c12` [Compound 817], the concentration giving a half-maximal response (EC50) was determined as 27.8 nM.

Regarding `CCCCNc1nc(N)nc2cnn(Cc3ccc(CO)cc3OC)c12` [Compound 818], the EC50 was 258 nM.

As to `CCCCNc1nc(N)nc2cnn(Cc3ccc(CNC4(CO)CCCC4)cc3OC)c12` [Compound 820], the EC50 stood at 121 nM.

As to `CCCCNc1nc(N)nc2cnn(Cc3ccc(CN4CCCNCC4)cc3OC)c12` [Compound 821], the EC50 is 33.8 nM.

Regarding `CCCCNc1nc(N)nc2cnn(Cc3ccc(CNc4ccc(CCO)cc4)cc3OC)c12` [Compound 822], the concentration for a half-maximal effect (EC50) is 244 nM.

In the case of `CCCCNc1nc(N)nc2cnn(Cc3ccc(CN4CCN(CCO)CC4)cc3OC)c12` [Compound 823], the EC50 came out at 21.5 nM.

Turning to `CCCCNc1nc(N)nc2cnn(Cc3ccc(CN(C)CCCO)cc3OC)c12` [Compound 825], the concentration giving a half-maximal response (EC50) came to 43.5 nM.

As to `CCCCNc1nc(N)nc2cnn(Cc3ccc(CNCCOC)cc3OC)c12` [Compound 826], the EC50 is 182 nM.

In the case of `CCCCNc1nc(N)nc2cnn(Cc3ccc(CN4CCN(C)CC4)cc3OC)c12` [Compound 827], the EC50 stood at 47.6 nM.

As to `CCCCNc1nc(N)nc2cnn(Cc3ccc(CNC(C)(C)C)cc3OC)c12` [Compound 828], the EC50 came out at 98.7 nM.

With `CCCCNc1nc(N)nc2cnn(Cc3ccc(Oc4ccc(C(C)(C)O)cc4)nc3)c12` [Compound 829], the half-maximal effective concentration (EC50) came to 1340 nM.

As for `CCCCNCc1ccc(Cn2ncc3nc(N)nc(NCCCC)c32)c(OC)c1` [Compound 831], the EC50 is 104 nM.

As for `CCCCNc1nc(N)nc2cnn(Cc3ccc(CN4CCCC4)cc3OC)c12` [Compound 833], the half-maximal effective concentration (EC50) came out at 31.1 nM.

In the case of `CCC[C@@H](CCO)Nc1nc(N)nc2cnn(Cc3ccc(CN4CC5CNCC5C4)cc3OC)c12` (stereo partly drawn) [Compound 834], the EC50 came to 29.9 nM.

Turning to `CCC[C@@H](CCO)Nc1nc(N)nc2cnn(Cc3ccc(CN4CC5(CNC5)C4)cc3OC)c12` [Compound 835], the concentration giving a half-maximal response (EC50) came to 89 nM.

As to `CCC[C@@H](CCO)Nc1nc(N)nc2cnn(Cc3ccc(Cn4ccnc4)cc3OC)c12` [Compound 836], the half-maximal effective concentration (EC50) is 15.3 nM.

Take `CCC[C@@H](CCO)Nc1nc(N)nc2cnn(Cc3ccc(CNCc4ccncc4)cc3OC)c12` [Compound 837]: the concentration giving a half-maximal response (EC50) stood at 2.4 nM.

Regarding `CCC[C@@H](CCO)Nc1nc(N)nc2cnn(Cc3ccc(CN4CCCNCC4)cc3OC)c12` [Compound 838], the 50% effective concentration (EC50) was determined as 39.6 nM.

Consider `CCC[C@@H](CCO)Nc1nc(N)nc2cnn(Cc3ccc(CN4CC5CC4CN5)cc3OC)c12` (stereo partly drawn) [Compound 839], for which the EC50 is 242 nM.

Turning to `CCC[C@@H](CCO)Nc1nc(N)nc2cnn(Cc3ccc(CNC4CCC4)cc3OC)c12` [Compound 841], the concentration for a half-maximal effect (EC50) was determined as 9.7 nM.

With `CCC[C@@H](CCO)Nc1nc(N)nc2cnn(Cc3ccc(CN4CC(CCO)C4)cc3OC)c12` [Compound 842], the EC50 is 28.3 nM.

Take `CCC[C@@H](CCO)Nc1nc(N)nc2cnn(Cc3ccc(CN4C[C@@H]5C[C@H]4CN5)cc3OC)c12` [Compound 843]: the 50% effective concentration (EC50) was found to be 55.9 nM.

For `CCC[C@@H](CCO)Nc1nc(N)nc2cnn(Cc3ccc(CN4CCc5cnccc5C4)cc3OC)c12` [Compound 844], the EC50 is 4.6 nM.

With `CCCCNc1nc(N)nc2cnn(Cc3ccc(CN4CCCNCC4)cc3OC)c12` [Compound 845], the EC50 came to 21.2 nM.

On to `CCC[C@@H](CCNC(C)=O)Nc1nc(N)nc2cnn(Cc3ccc(CNC4(C)CCOCC4)cc3OC)c12` [Compound 847], for which the concentration giving a half-maximal response (EC50) came to 187 nM.

On to `CCC[C@@H](CCO)Nc1nc(N)nc2cnn(Cc3ccc(CNC4(C)CCOCC4)cc3OC)c12` [Compound 848], for which the EC50 worked out at 33 nM.

In the case of `CCCCNc1nc(N)nc2cnn(Cc3ccc(CN4CCN(CCO)CC4)cn3)c12` [Compound 849], the concentration giving a half-maximal response (EC50) was determined as 2030 nM.

As to `CCCCNc1nc(N)nc2cnn(Cc3ccc(CN4CCNCC4)cn3)c12` [Compound 850], the EC50 worked out at 1620 nM.

`CCCCNc1nc(N)nc2cnn(Cc3ccc(CN4CCCC4)cn3)c12` [Compound 851]: the EC50 was determined as 1770 nM.

As for `CCCCNc1nc(N)nc2cnn(Cc3ccc(CN4CC5CC4CN5)cn3)c12` (stereo not drawn) [Compound 852], the concentration giving a half-maximal response (EC50) worked out at 3170 nM.

Consider `CCCCNc1nc(N)nc2cnn(Cc3ccc(CNC4CCC4)cc3F)c12` [Compound 853], for which the concentration giving a half-maximal response (EC50) turned out to be 420 nM.

On to `CCCCNc1nc(N)nc2cnn(Cc3ncc(CNC4CCC4)cc3OC)c12` [Compound 855], for which the EC50 was determined as 640 nM.

In the case of `CCCCNc1nc(N)nc2cnn(Cc3ncc(CNC4CCOCC4)cc3OC)c12` [Compound 856], the concentration giving a half-maximal response (EC50) was 1160 nM.

`CCCCNc1nc(N)nc2cnn(Cc3ccc(Oc4ccc(CNCC(C)(C)O)cc4)cc3OC)c12` [Compound 857]: the half-maximal effective concentration (EC50) turned out to be 11.5 nM.

For the compound `CCCCNc1nc(N)nc2cnn(Cc3ccc(Oc4ccc(CNC5CCOCC5)cc4)cc3OC)c12` [Compound 858], the concentration giving a half-maximal response (EC50) was 10.8 nM.

Regarding `CCCCNc1nc(N)nc2cnn(Cc3ccc(Oc4ccc(CNC5CCC5)cc4)cc3OC)c12` [Compound 860], the 50% effective concentration (EC50) was 19.5 nM.

Turning to `CCC[C@@H](CCO)Nc1nc(N)nc2cnn(Cc3ccc(CN4CC(OC)C4)cc3OC)c12` [Compound 861], the concentration giving a half-maximal response (EC50) is 1.2 nM.

For `CCC[C@@H](CCO)Nc1nc(N)nc2cnn(Cc3ccc(CN4CC(F)(F)C4)cc3OC)c12` [Compound 862], the concentration giving a half-maximal response (EC50) worked out at 11 nM.

`CCC[C@@H](CCO)Nc1nc(N)nc2cnn(Cc3ccc(CN4CC(O)C4)cc3OC)c12` [Compound 863]: the EC50 was 9.5 nM.

As to `CCOCCNc1nc(N)nc2cnn(Cc3ccc(CNC4CCC4)cc3OC)c12` [Compound 864], the EC50 stood at 216 nM.

For `COCCNc1nc(N)nc2cnn(Cc3ccc(CNC4CCC4)cc3OC)c12` [Compound 865], the EC50 is 959 nM.

By EC50 is commonly meant the concentration that produces a half-maximal response.
